According to publication PMC6941952, “A homogeneous bioluminescent immunoassay to probe cellular signaling pathway regulation” (Communications Biology, 2020):
Several values for one entry are separate records, joined by “and”; a condition that tells them apart may be missing. Equal values may be shown once.

Tested on: total IκBα
Assay: NanoBiT cell-based immunoassay, total IκBα in MCF-7 cells
Set-up: species or system human
Details: for IkB degradation (% compared to no IKK16), Average / IkB degradation (% compared to no IKK16) / Non-Treated/Treated / Raw data / Subtract reagent background: TNF; for IkB degradation (% compared to no IKK16), Average: average of replicates; for IkB degradation (% compared to no IKK16) / Non-Treated/Treated / Raw data / Subtract reagent background: single replicates; for Average IkB protein (%) / Raw data IkB / Subtract reagent background IkB / protein (%) IkB: MCF-7, Fig 7c; for protein (%) IkB: replicate
Description: Prior to NanoBiT Cell-Based Immunoassay, 50,000 cells were seeded in 160 µl of complete growth media per well of a 96-well plate and incubated overnight. […] If necessary, the cell culture media were replaced with serum-free media after the cells were stably adherent on the plate and incubated overnight. To treat cells with activators or inhibitors, medium was changed to 30 µl of medium containing inhibitors. If activation of a specific pathway is needed, the cells were stimulated with 10 µl of medium containing activators. To lyse the cells, 10 µl of lysis buffer containing 0.1% digitonin diluted in 1X immunoassay buffer with protease and phosphatase inhibitors was added and the plates were mixed vigorously for 20 min. Then, 50 µl of an antibody mix containing two primary antibodies against the target protein and NanoBiT detecting antibodies (0.3 µl each per well), diluted in 1X immunoassay buffer was added to the lysates. The plates were incubated at 23 °C for 90 min, followed by the addition of 25 µl of Nano-Glo® reagent consisting of Nano-Glo® Luciferase Assay Substrate mixed with 1X immunoassay buffer. Luminescence was measured using a plate-reading luminometer.
Single dose or dose response inhibitor treatments were performed prior to activation of the pathways as follows. For IκBα, the cells were treated in 30 µl medium with IKK16 or MG132 for 60 min before the addition of 10 µl of DMEM containing appropriate concentration of TNFα. To measure phosphorylation of AKT or STAT3, the corresponding NanoBiT immunoassays were developed with MCF-7 or A431 cells, respectively, according the same scheme used to develop the IκBα assay using the primary antibodies for AKT and STAT3 described in the reagents section. […] Treatment with LY294002 was performed in 30 µl medium and cells were incubated for 60 min before the addition of 1 µM Insulin. To measure STAT3 phosphorylation, A431 cells were incubated overnight in DMEM medium without serum. […] After addition of the stimulators, the cells were incubated for additional times as follows. IκBα phosphorylation and degradation analyses required both time courses and single time points as described in figures. […] The NanoBiT immunoassay protocol was followed as described above.
All 96-well assay plates were read using a GloMax® 96 Microplate Luminometer from Promega. The instrument was set to 0.5 s integration time. In order to obtain net change of signal, the reagent background values (signal from the well containing all reagent except primary antibodies) were subtracted from the sample values. To plot and analyze the data, Microsoft Excel and GraphPad Prism® Software were used. IC50 values were determined by using a nonlinear regression fit to a sigmoidal dose response (variable slope).

[1] = MCF-7 cells, IKK16 0.000762939 uM
[2] = MCF-7 cells, IKK16 0.00305176 uM
[3] = MCF-7 cells, IKK16 0.0488281 uM

O=C(c1ccc(Nc2nccc(-c3cc4ccccc4s3)n2)cc1)N1CCC(N2CCCC2)CC1 [IKK16]
Total IkB Raw data (Figure 3a and 3b): 147500 and 141100 and 148400
Total IkB Subtract reagent background (Figure 3a and 3b): 129800 and 128900 and 122500
Total IkB Average (Figure 3a and 3b, background subtracted): 127067
TNFα-induced reduction of total IκBα protein (MCF-7 cells, 10 µM 1 h, TNFα 50 ng per ml 10 min): abolished
IkB degradation (% compared to no IKK16), Average [1]: 98.1%
IkB degradation (% compared to no IKK16) [1]: 101% and 97% and 93%
Non-Treated/Treated [1]: 4.060 and 4.672 and 4.565 and 4.365
Raw data [1]: 21820 and 22100 and 21310 and 21710
Subtract reagent background [1]: 13931 and 13141 and 13541 and 13651
IkB degradation (% compared to no IKK16), Average [2]: 96.3%
IkB degradation (% compared to no IKK16) [2]: 103% and 93% and 95% and 94%
Non-Treated/Treated [2]: 4.119 and 4.303 and 4.479 and 4.413
Raw data [2]: 21670 and 21900 and 22440 and 21970
Subtract reagent background [2]: 13731 and 14271 and 13801 and 13501
IkB degradation (% compared to no IKK16), Average (MCF-7 cells, IKK16 0.012207 uM): 97.0%
IkB degradation (% compared to no IKK16) (MCF-7 cells, IKK16 0.012207 uM): 101% and 95% and 99% and 94%
Non-Treated/Treated (MCF-7 cells, IKK16 0.012207 uM): 4.063 and 4.367 and 4.623 and 4.410
Raw data (MCF-7 cells, IKK16 0.012207 uM): 21680 and 22090 and 22230 and 21540
Subtract reagent background (MCF-7 cells, IKK16 0.012207 uM): 13921 and 14061 and 13371 and 13511
IkB degradation (% compared to no IKK16), Average [3]: 102.5%
IkB degradation (% compared to no IKK16) [3]: 101% and 107% and 103% and 99%
Non-Treated/Treated [3]: 4.060 and 4.927 and 4.840 and 4.651
Raw data [3]: 20980 and 22100 and 20630 and 20940
Subtract reagent background [3]: 13931 and 12461 and 12771 and 12811
IkB degradation (% compared to no IKK16), Average (MCF-7 cells, IKK16 0.195312 uM): 98.7%
IkB degradation (% compared to no IKK16) (MCF-7 cells, IKK16 0.195312 uM): 99% and 97% and 98% and 100%
Non-Treated/Treated (MCF-7 cells, IKK16 0.195312 uM): 3.986 and 4.488 and 4.616 and 4.698
Raw data (MCF-7 cells, IKK16 0.195312 uM): 20850 and 22360 and 21850 and 21560
Subtract reagent background (MCF-7 cells, IKK16 0.195312 uM): 14191 and 13681 and 13391 and 12681
IkB degradation (% compared to no IKK16), Average (MCF-7 cells, IKK16 0.78125 uM): 84.0%
IkB degradation (% compared to no IKK16) (MCF-7 cells, IKK16 0.78125 uM): 86% and 82% and 85%
Non-Treated/Treated (MCF-7 cells, IKK16 0.78125 uM): 3.457 and 3.811 and 3.985 and 3.866
Raw data (MCF-7 cells, IKK16 0.78125 uM): 23580 and 24530 and 24280 and 23680
Subtract reagent background (MCF-7 cells, IKK16 0.78125 uM): 16361 and 16111 and 15511 and 15411
IkB degradation (% compared to no IKK16), Average (MCF-7 cells, IKK16 3.125 uM): 40.0%
IkB degradation (% compared to no IKK16) (MCF-7 cells, IKK16 3.125 uM): 42% and 41% and 39% and 38%
Non-Treated/Treated (MCF-7 cells, IKK16 3.125 uM): 1.686 and 1.873 and 1.836 and 1.807
Raw data (MCF-7 cells, IKK16 3.125 uM): 41140 and 41710 and 40950 and 41840
Subtract reagent background (MCF-7 cells, IKK16 3.125 uM): 33541 and 32781 and 33671 and 32971
IC50 (MCF-7 cells, pretreated 1 h, then TNFα 50 ng per ml 30 min, read-out: IC50, inhibition of TNFα induced degradation of IκBα): 1440 nM

C[C@]12CC[C@@H]3c4ccc(O)cc4C[C@@H](CCCCCCCCC[S+]([O-])CCCC(F)(F)C(F)(F)F)[C@H]3[C@@H]1CC[C@@H]2O (stereo partly shown) [Fulvestrant]
Average IkB protein (%) (Fulvestrant 0.0976562 nM, 4 h): 103.1%
Raw data IkB (Fulvestrant 0.0976562 nM, 4 h): 2320000 and 2388000 and 2321000
Subtract reagent background IkB (Fulvestrant 0.0976562 nM, 4 h): 2160700 and 2093700 and 2092700
protein (%) IkB (Fulvestrant 0.0976562 nM, 4 h): 102.8% and 100.3% and 106.3%
Average IkB protein (%) (Fulvestrant 0.195312 nM, 4 h): 102.8%
Raw data IkB (Fulvestrant 0.195312 nM, 4 h): 2292000 and 2388000 and 2330000
Subtract reagent background IkB (Fulvestrant 0.195312 nM, 4 h): 2161100 and 2103100 and 2065100
protein (%) IkB (Fulvestrant 0.195312 nM, 4 h): 102.8% and 100.7% and 104.9%
Average IkB protein (%) (Fulvestrant 0.390625 nM, 4 h): 106.4%
Raw data IkB (Fulvestrant 0.390625 nM, 4 h): 2337000 and 2479000 and 2412000
Subtract reagent background IkB (Fulvestrant 0.390625 nM, 4 h): 2252550 and 2185550 and 2110550
protein (%) IkB (Fulvestrant 0.390625 nM, 4 h): 107.1% and 104.7% and 107.3%
Average IkB protein (%) (Fulvestrant 0.78125 nM, 4 h): 107.7%
Raw data IkB (Fulvestrant 0.78125 nM, 4 h): 2309000 and 2550000 and 2458000
Subtract reagent background IkB (Fulvestrant 0.78125 nM, 4 h): 2323650 and 2231650 and 2082650
protein (%) IkB (Fulvestrant 0.78125 nM, 4 h): 110.5% and 106.9% and 105.8%
Average IkB protein (%) (Fulvestrant 1.5625 nM, 4 h): 109.4%
Raw data IkB (Fulvestrant 1.5625 nM, 4 h): 2305000 and 2596000 and 2525000
Subtract reagent background IkB (Fulvestrant 1.5625 nM, 4 h): 2368700 and 2297700 and 2077700
protein (%) IkB (Fulvestrant 1.5625 nM, 4 h): 110.1% and 105.6%
Average IkB protein (%) (Fulvestrant 3.125 nM, 4 h): 110.7%
Raw data IkB (Fulvestrant 3.125 nM, 4 h): 2392000 and 2556000 and 2547000
Subtract reagent background IkB (Fulvestrant 3.125 nM, 4 h): 2330150 and 2321150 and 2166150
protein (%) IkB (Fulvestrant 3.125 nM, 4 h): 110.8% and 111.2% and 110.1%
Average IkB protein (%) (Fulvestrant 6.25 nM, 4 h): 107.5%
Raw data IkB (Fulvestrant 6.25 nM, 4 h): 2316000 and 2499000 and 2485000
Subtract reagent background IkB (Fulvestrant 6.25 nM, 4 h): 2273600 and 2259600 and 2090600
protein (%) IkB (Fulvestrant 6.25 nM, 4 h): 108.1% and 108.2% and 106.2%
Average IkB protein (%) (Fulvestrant 25 nM, 4 h): 102.2%
Raw data IkB (Fulvestrant 25 nM, 4 h): 2228000 and 2399000 and 2343000
Subtract reagent background IkB (Fulvestrant 25 nM, 4 h): 2174600 and 2118600 and 2003600
protein (%) IkB (Fulvestrant 25 nM, 4 h): 103.4% and 101.5% and 101.8%
Average IkB protein (%) (Fulvestrant 50 nM, 4 h): 99.5%
Raw data IkB (Fulvestrant 50 nM, 4 h): 2216000 and 2302000 and 2278000
Subtract reagent background IkB (Fulvestrant 50 nM, 4 h): 2078950 and 2054950 and 1992950
protein (%) IkB (Fulvestrant 50 nM, 4 h): 98.9% and 98.4% and 101.3%
Average IkB protein (%) (Fulvestrant 100 nM, 4 h): 94.0%
Raw data IkB (Fulvestrant 100 nM, 4 h): 2084000 and 2146000 and 2219000
Subtract reagent background IkB (Fulvestrant 100 nM, 4 h): 1926250 and 1999250 and 1864250
protein (%) IkB (Fulvestrant 100 nM, 4 h): 91.6% and 95.8% and 94.7%
cytotoxicity inferred from IκBα level (MCF-7 cells, 4 h): lack of cytotoxicity
effect on IκBα protein level (MCF-7 cells, 4 h, same compound titration): did not affect
